According to PubChem BioAssay (NCI):
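Here, GI50 denotes the concentration required for 50% inhibition of growth. TGI marks complete inhibition of growth.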

How the values were obtained:
Test in all cases: NCI tumour cell line growth inhibition, 384-well format
HT29 colon = tested on: HT29 colon
UACC-257 melanoma = tested on: UACC-257 melanoma
CCRF-CEM leukemia = tested on: CCRF-CEM leukemia
IGROV1 ovarian = tested on: IGROV1 ovarian
PC-3 prostate = tested on: PC-3 prostate
HS 578T breast = tested on: HS 578T breast
RPMI-8226 leukemia = tested on: RPMI-8226 leukemia
NCI-H226 lung = tested on: NCI-H226 lung
MDA-MB-435 melanoma = tested on: MDA-MB-435 melanoma
HL-60(TB) leukemia = tested on: HL-60(TB) leukemia
HOP-92 NSCLC = tested on: HOP-92 NSCLC
SF-268 CNS = tested on: SF-268 CNS
OVCAR-4 ovarian = tested on: OVCAR-4 ovarian
HCC-2998 colon = tested on: HCC-2998 colon
RXF 393 renal = tested on: RXF 393 renal
786-0 renal = tested on: 786-0 renal
NCI-H522 lung = tested on: NCI-H522 lung
SF-539 CNS = tested on: SF-539 CNS
SNB-19 CNS = tested on: SNB-19 CNS
MCF7 breast = tested on: MCF7 breast
K-562 leukemia = tested on: K-562 leukemia
ACHN renal = tested on: ACHN renal
CAKI-1 renal = tested on: CAKI-1 renal
MDA-MB-231 breast = tested on: MDA-MB-231 breast
OVCAR-3 ovarian = tested on: OVCAR-3 ovarian
HCT-116 colon = tested on: HCT-116 colon
NCI-H460 NSCLC = tested on: NCI-H460 NSCLC
MDA-MB-468 breast = tested on: MDA-MB-468 breast
MALME-3M melanoma = tested on: MALME-3M melanoma
TK-10 renal = tested on: TK-10 renal
COLO 205 colon = tested on: COLO 205 colon
U251 glioblastoma = tested on: U251 glioblastoma
KM12 colon = tested on: KM12 colon
SK-MEL-28 melanoma = tested on: SK-MEL-28 melanoma
OVCAR-8 ovarian = tested on: OVCAR-8 ovarian
SF-295 CNS = tested on: SF-295 CNS
SK-MEL-5 melanoma = tested on: SK-MEL-5 melanoma
T-47D breast = tested on: T-47D breast
MOLT-4 leukemia = tested on: MOLT-4 leukemia
OVCAR-5 ovarian = tested on: OVCAR-5 ovarian
UACC-62 melanoma = tested on: UACC-62 melanoma
SN12C renal = tested on: SN12C renal
NCI-H23 lung = tested on: NCI-H23 lung
A498 renal = tested on: A498 renal
A549 NSCLC = tested on: A549 NSCLC
SW-620 colon = tested on: SW-620 colon
BT-549 breast = tested on: BT-549 breast
NCI/ADR-RES ovarian = tested on: NCI/ADR-RES ovarian
EKVX NSCLC = tested on: EKVX NSCLC
LOX IMVI melanoma = tested on: LOX IMVI melanoma
NCI-H322M lung = tested on: NCI-H322M lung
HCT-15 colon = tested on: HCT-15 colon
UO-31 renal = tested on: UO-31 renal
SK-OV-3 ovarian = tested on: SK-OV-3 ovarian
HOP-62 NSCLC = tested on: HOP-62 NSCLC
DU-145 prostate = tested on: DU-145 prostate
M14 melanoma = tested on: M14 melanoma
SK-MEL-2 melanoma = tested on: SK-MEL-2 melanoma
SNB-75 CNS = tested on: SNB-75 CNS

## CCNC(=O)Nc1ccc(-c2nc3c(c(N4CCOC[C@@H]4C)n2)CCN(C2COC2)C3)cc1
HT29 colon
  GI50: 4.78 µM
  TGI: > 100 µM
UACC-257 melanoma
  GI50: 1.45 µM
  TGI: 14.6 µM
CCRF-CEM leukemia
  GI50: 0.325 µM
  TGI: 19.8 µM
IGROV1 ovarian
  GI50: 0.147 µM
  TGI: 0.885 µM
PC-3 prostate
  GI50: 0.218 µM
  TGI: > 100 µM
HS 578T breast
  GI50: 0.116 µM
  TGI: 0.596 µM
RPMI-8226 leukemia
  GI50: 0.0387 µM
  TGI: 0.276 µM
NCI-H226 lung
  GI50: 0.207 µM
  TGI: 3.33 µM
MDA-MB-435 melanoma
  GI50: 0.716 µM
  TGI: 7.41 µM
HL-60(TB) leukemia
  GI50: 5.4 µM
  TGI: > 100 µM
HOP-92 NSCLC
  GI50: 0.605 µM
  TGI: 8.68 µM
SF-268 CNS
  GI50: 1.22 µM
  TGI: > 100 µM
OVCAR-4 ovarian
  GI50: 0.279 µM
  TGI: 3.45 µM
HCC-2998 colon
  GI50: 0.44 µM
  TGI: > 100 µM
RXF 393 renal
  GI50: 0.212 µM
  TGI: 2.13 µM
786-0 renal
  GI50: 1.19 µM
  TGI: > 100 µM
NCI-H522 lung
  GI50: 0.159 µM
  TGI: 8.13 µM
SF-539 CNS
  GI50: 0.656 µM
  TGI: > 100 µM
SNB-19 CNS
  GI50: 2.82 µM
  TGI: > 100 µM
MCF7 breast
  GI50: 0.131 µM
  TGI: 68.6 µM
K-562 leukemia
  GI50: 0.752 µM
  TGI: > 100 µM
ACHN renal
  GI50: 0.485 µM
  TGI: > 100 µM
CAKI-1 renal
  GI50: 0.323 µM
  TGI: 4.1 µM
MDA-MB-231 breast
  GI50: 0.476 µM
  TGI: > 100 µM
OVCAR-3 ovarian
  GI50: 0.445 µM
  TGI: > 100 µM
HCT-116 colon
  GI50: 3.28 µM
  TGI: > 100 µM
NCI-H460 NSCLC
  GI50: 0.108 µM
  TGI: > 100 µM
MDA-MB-468 breast
  GI50: 0.173 µM
  TGI: 2.38 µM
MALME-3M melanoma
  GI50: 0.167 µM
  TGI: 3.02 µM
TK-10 renal
  GI50: 0.39 µM
  TGI: 5.65 µM
COLO 205 colon
  GI50: 0.347 µM
  TGI: > 100 µM
U251 glioblastoma
  GI50: 1.35 µM
  TGI: > 100 µM
KM12 colon
  GI50: 0.479 µM
  TGI: > 100 µM
SK-MEL-28 melanoma
  GI50: 0.443 µM
  TGI: 28 µM
OVCAR-8 ovarian
  GI50: 0.966 µM
  TGI: > 100 µM
SF-295 CNS
  GI50: 0.305 µM
  TGI: 2.54 µM
SK-MEL-5 melanoma
  GI50: 0.221 µM
  TGI: 2.26 µM
T-47D breast
  GI50: 0.0263 µM
  TGI: 0.437 µM
MOLT-4 leukemia
  GI50: 0.207 µM
  TGI: 11.1 µM
OVCAR-5 ovarian
  GI50: 1.04 µM
  TGI: > 100 µM
UACC-62 melanoma
  GI50: 0.366 µM
  TGI: 3.81 µM
SN12C renal
  GI50: 0.31 µM
  TGI: > 100 µM
NCI-H23 lung
  GI50: 1.91 µM
  TGI: > 100 µM
A498 renal
  GI50: 0.0938 µM
  TGI: 1.9 µM
A549 NSCLC
  GI50: 0.48 µM
  TGI: > 100 µM
SW-620 colon
  GI50: 2.28 µM
  TGI: > 100 µM
BT-549 breast
  GI50: 0.22 µM
  TGI: 2.56 µM
NCI/ADR-RES ovarian
  GI50: 11.4 µM
  TGI: > 100 µM
EKVX NSCLC
  GI50: 0.381 µM
  TGI: 9.36 µM
LOX IMVI melanoma
  GI50: 0.658 µM
  TGI: 13.8 µM
NCI-H322M lung
  GI50: 0.527 µM
  TGI: > 100 µM
HCT-15 colon
  GI50: 0.669 µM
  TGI: > 100 µM
UO-31 renal
  GI50: 0.654 µM
  TGI: > 100 µM
SK-OV-3 ovarian
  GI50: 0.189 µM
  TGI: 5.37 µM
HOP-62 NSCLC
  GI50: 0.494 µM
  TGI: 11 µM
DU-145 prostate
  GI50: 0.64 µM
  TGI: > 100 µM
M14 melanoma
  GI50: 0.416 µM
  TGI: > 100 µM
SK-MEL-2 melanoma
  GI50: 1.89 µM
  TGI: 7.59 µM
SNB-75 CNS
  GI50: 0.0462 µM
  TGI: 0.98 µM
